The values below come from patent US20090239845A1, “PYRAZOLE COMPOUNDS AS PROSTAGLANDIN RECEPTORS LIGANDS” (priority 2005, published 2009).

Structures are written as SMILES. Where a name gives a salt, the structure may show the parent alone. Some results are limits rather than exact numbers.

The target in one test is T1, human EP1 receptor (Homo sapiens, UniProt P34995).
T1 construct: expressed in transfected cells; host or cells: CHO-K1
T1 sequence (P34995 1-402): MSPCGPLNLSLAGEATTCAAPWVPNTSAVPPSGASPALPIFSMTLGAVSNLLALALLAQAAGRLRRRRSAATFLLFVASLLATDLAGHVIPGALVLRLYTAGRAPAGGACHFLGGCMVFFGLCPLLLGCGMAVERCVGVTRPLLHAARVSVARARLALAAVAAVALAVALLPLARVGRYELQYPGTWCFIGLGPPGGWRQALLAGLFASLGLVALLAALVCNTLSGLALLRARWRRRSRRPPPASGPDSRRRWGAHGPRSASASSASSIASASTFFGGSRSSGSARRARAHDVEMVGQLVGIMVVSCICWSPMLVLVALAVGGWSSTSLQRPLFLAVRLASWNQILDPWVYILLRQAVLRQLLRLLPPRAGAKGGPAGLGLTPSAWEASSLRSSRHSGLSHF
Nature of the test: human EP1 calcium mobilisation assay. It is filed as cell-based. To be noted: negative logarithm10 of the antagonist dissociation constant; CHO-K1 cells, PGE2; free bases or sodium salts; averages of a number of experiments; read-out: functional pKi value (converted). A general note: Calcium assays in cells follow changes in intracellular calcium, usually with a dye or a luminescent sensor.
Consider `Cc1cc(NC(=O)Cc2ccccc2)nn1Cc1cc(Cl)ccc1OCc1cc(F)c(F)cc1F` [Example 126, N-{1-[(5-Chloro-2-{[(2,4,5-trifluorophenyl)methyl]oxy}phenyl)methyl]-5-methyl-1H-pyrazol-3-yl}-2-phenylacetamide], for which the Ki was above 1000 nM.
As to `Cc1cc(NC(=O)OC(C)(C)C)nn1Cc1cc(Br)ccc1OCc1ccc(F)cc1F` [Example 6, 1,1-Dimethylethyl {1-[(5-bromo-2-{[(2,4-difluorophenyl)methyl]oxy}phenyl)methyl]-5-methyl-1H-pyrazol-3-yl}carbamate], the Ki was above 1000 nM.
On to `Cc1cc(NC(=O)OC(C)C)nn1Cc1cc(Br)ccc1OCc1ccc(Cl)cc1Cl` [Example 9, 1-Methylethyl {1-[(5-bromo-2-{[(2,4-dichlorophenyl)methyl]oxy}phenyl)methyl]-5-methyl-1H-pyrazol-3-yl]carbamate], for which the Ki is above 1000 nM.

The target of another test is T2, human prostanoid EP1 receptor (Homo sapiens, UniProt P34995).
T2 construct: expressed in transfected cells; host or cells: CHO-K1 (membrane fraction)
T2 sequence (P34995 1-402): T1 sequence (P34995 1-402)
Nature of the test: Binding assay for the human prostanoid EP1 receptor (competition with [3H]-PGE2). The conditions noted are these: negative logarithm10 of the IC50; competition with [3H]-PGE2, CHO-K1 cell membranes; averages of a number of experiments; read-out: pIC50 value (converted). As to the method:
Competition assay using [^3H]-PGE2.
Compound potencies are determined using a radioligand binding assay. In this assay compound potencies are determined from their ability to compete with tritiated prostaglandin E2 ([^3H]-PGE2) for binding to the human EP1 receptor.
This assay utilises Chinese hamster ovary-K1 (CHO-K1) cells into which a stable vector containing the EP1 cDNA has previously been transfected. Cells are cultured in suitable flasks containing culture medium such as DMEM:F-12 supplemented with 10% v/v foetal calf serum, 2 mM L-glutamine, 0.25 mg/ml geneticin, 10 μg/ml puromycin and 10 μM indomethacin.
Cells are detached from the culture flasks by incubation in calcium and magnesium free phosphate buffered saline containing 1 mM disodium ethylenediaminetetraacetic acid (Na2EDTA) and 10 μM indomethacin for 5 min. The cells are isolated by centrifugation at 250×g for 5mins and suspended in an ice cold buffer such as 50 mM Tris, 1 mM Na2EDTA, 140 mM NaCl, 10 μM indomethacin (pH 7.4). The cells are homogenised using a Polytron tissue disrupter (2×10s burst at full setting), centrifuged at 48,000×g for 20mins and the pellet containing the membrane fraction is washed (optional) three times by suspension and centrifugation at 48,000×g for 20mins. The final membrane pellet is suspended in an assay buffer such as 10 mM 2-[N-morpholino]ethanesulphonic acid, 1 mM Na2EDTA, 10 mM MgCl2 (pH 6). Aliquots are frozen at −80° C. until required.
For the binding assay the cell membranes, competing compounds and [^3H]-PGE2 (3 nM final assay concentration) are incubated in a final volume of 100 μl for 30 min at 30° C. All reagents are prepared in assay buffer. Reactions are terminated by rapid vacuum filtration over GF/B filters using a Brandell cell harvester. The filters are washed with ice cold assay buffer, dried and the radioactivity retained on the filters is measured by liquid scintillation counting in Packard TopCount scintillation counter.
The data are analysed using non linear curve fitting techniques to determine the concentration of compound producing 50% inhibition of specific binding (IC50).
Turning to `Cc1cc(NC(=O)Cc2ccccc2)nn1Cc1cc(Cl)ccc1OCc1cc(F)c(F)cc1F` [Example 126, N-{1-[(5-Chloro-2-{[(2,4,5-trifluorophenyl)methyl]oxy}phenyl)methyl]-5-methyl-1H-pyrazol-3-yl}-2-phenylacetamide], the IC50 was at most 10 nM.
In the case of `Cc1cc(NC(=O)OC(C)(C)C)nn1Cc1cc(Br)ccc1OCc1ccc(F)cc1F` [Example 6, 1,1-Dimethylethyl {1-[(5-bromo-2-{[(2,4-difluorophenyl)methyl]oxy}phenyl)methyl]-5-methyl-1H-pyrazol-3-yl}carbamate], the IC50 is at most 10 nM.
Regarding `Cc1cc(C(=O)Nc2ccc(CN(C)C)cc2)nn1Cc1cc(Cl)ccc1OCc1ccccc1` [Example 346, 1-({5-Chloro-2-[(phenylmethyl)oxy]phenyl}methyl)-N-{4-[(dimethylamino)methyl]phe-nyl}-5-methyl-1H-pyrazole-3-carboxamide hydrochloride], the IC50 was at most 10 nM.
For `Cc1c(-c2nc3cc(CN4CCN(C)CC4)ccc3[nH]2)cnn1Cc1cc(Cl)ccc1OCC(C)C` [Example 381, 2-[1-({5-Chloro-2-[(2-methylpropyl)oxy]phenyl}meth-yl)-5-methyl-1H-pyrazol-4-yl]-5-[(4-methyl-1-piperazinyl)methyl]-1H-benzimidazole trihydrochloride], the IC50 was at most 10 nM.
`Cc1cc(NC(=O)CC(C)(C)C)nn1Cc1cc(Cl)ccc1OCc1ccc(F)cc1Cl` [Example 133, N-{1-[(5-Chloro-2-{[(2-chloro-4-fluorophenyl)methyl]oxy}phenyl)methyl]-5-methyl-1H-pyrazol-3-yl}-3,3-dimethylbutanamide]: the IC50 is at most 10 nM.
`Cc1cc(C(=O)Nc2ccc(CN3CCOCC3)cc2)nn1Cc1cc(Cl)ccc1OCC(C)C` [Example 398, 1-({5-Chloro-2-[(2-methylpropyl)oxy]phenyl}methyl)-5-methyl-N-[4-(4-morpholinylmethyl)phenyl]-1H-pyrazole-3-carboxamide hydrochloride]: the IC50 is at most 10 nM.
Regarding `Cc1cc(NC(=O)CC2CCCCC2)nn1Cc1cc(Cl)ccc1OCc1ccccc1` [Example 154, N-[1-({5-Chloro-2-[(phenylmethyl)oxy]phenyl}methyl)-5-methyl-1H-pyrazol-3-yl]-2-cyclohexylacetamide], the IC50 is at most 10 nM.
As for `Cc1cc(C(=O)Nc2ccc(CN3CCCCC3)cc2)nn1Cc1cc(Cl)ccc1OCC(C)C` [Example 397, 1-({5-Chloro-2-[(2-methylpropyl)oxy]phenyl}methyl)-5-methyl-N-[4-(1-piperidinylmethyl)phenyl]-1H-pyrazole-3-carboxamide hydrochloride], the IC50 is at most 10 nM.
Turning to `Cc1cc(C(=O)Nc2ccc(CNC(C)C)cc2)nn1Cc1cc(Cl)ccc1OCC(C)C` [Example 395, 1-({5-Chloro-2-[(2-methylpropyl)oxy]phenyl}methyl)-5-methyl-N-(4-{[(1-methylethyl)amino]methyl}phenyl)-1H-pyrazole-3-carboxamide hydrochloride], the IC50 was at most 10 nM.
Regarding `Cc1cc(-c2nc3ccncc3[nH]2)nn1Cc1cc(Cl)ccc1OCC(C)C` [Example 373, 2-[1-({5-Chloro-2-[(2-methylpropyl)oxy]phenyl}methyl)-5-methyl-1H-pyrazol-3-yl]-1H-imidazo[4,5-c]pyridine hydrochloride], the IC50 is at most 10 nM.
As to `Cc1cc(NC(=O)OC(C)C)nn1Cc1cc(Br)ccc1OCc1ccc(Cl)cc1Cl` [Example 9, 1-Methylethyl {1-[(5-bromo-2-{[(2,4-dichlorophenyl)methyl]oxy}phenyl)methyl]-5-methyl-1H-pyrazol-3-yl]carbamate], the IC50 is at most 10 nM.
Take `Cc1cc(NC(=O)OC2CCOCC2)nn1Cc1cc(Br)ccc1OCc1ccc(Cl)cc1Cl` [Example 30, Tetrahydro-2H-pyran-4-yl {1-[(5-bromo-2-{[(2,4-dichlorophenyl)methyl]oxy}phe-nyl)methyl]-5-methyl-1H-pyrazol-3-yl}carbamate]: the IC50 is at most 10 nM.
In the case of `Cc1cc(C(=O)Nc2c(F)cccc2F)nn1Cc1cc(Br)ccc1OCc1ccc(F)cc1F` [Example 319, 1-[(5-Bromo-2-{[(2,4-difluorophenyl)methyl]oxy}phenyl)methyl]-N-(2,6-difluorophenyl)-5-methyl-1H-pyrazole-3-carboxamide], the IC50 was at most 10 nM.
Take `Cc1cc(NC(=O)c2cccc3ccccc23)nn1Cc1cc(Cl)ccc1OCc1ccccc1` [Example 160, N-[1-({5-Chloro-2-[(phenylmethyl)oxy]phenyl}methyl)-5-methyl-1H-pyrazol-3-yl]-1-naphthalenecarboxamide]: the IC50 is at most 10 nM.
On to `Cc1cc(C(=O)NS(=O)(=O)c2ccccc2)nn1Cc1cc(Cl)ccc1OCc1ccccc1` [Example 355, 1-({5-Chloro-2-[(phenylmethyl)oxy]phenyl}methyl)-5-methyl-N-(phenylsulfonyl)-1H-pyrazole-3-carboxamide], for which the IC50 is at most 10 nM.
Consider `Cc1cc(-c2nc3ccc(N4CCN(C)CC4)cc3[nH]2)nn1Cc1cc(Cl)ccc1OCC(C)C` [Example 375, 2-[1-({5-Chloro-2-[(2-methylpropyl)oxy]phenyl}methyl)-5-methyl-1H-pyrazol-3-yl]-5-(4-methyl-1-piperazinyl)-1H-benzimidazole trihydrochloride], for which the IC50 is at most 10 nM.
Same read-out and setting: in the case of `Cc1cc(-c2nc3ncccc3[nH]2)nn1Cc1cc(Cl)ccc1OCC(C)C` [Example 372, 2-[1-({5-Chloro-2-[(2-methylpropyl)oxy]phenyl}methyl)-5-methyl-1H-pyrazol-3-yl]-1H-imidazo[4,5-b]pyridine hydrochloride] it was at most 10 nM.
For the compound `Cc1cc(NC(=O)C2CCCCC2)nn1Cc1cc(Cl)ccc1OCc1ccccc1` [Example 110, N-[1-({5-Chloro-2-[(phenylmethyl)oxy]phenyl}methyl)-5-methyl-1H-pyrazol-3-yl]cyclohexanecarboxamide], the IC50 is at most 10 nM.
For the compound `Cc1cc(C(=O)Nc2ccc(CN3CCNC(=O)C3)cc2)nn1Cc1cc(Cl)ccc1OCC(C)C` [Example 399, 1-({5-Chloro-2-[(2-methylpropyl)oxy]phenyl}methyl)-5-methyl-N-{4-[(3-oxo-1-piperazinyl)methyl]phenyl}-1H-pyrazole-3-carboxamide hydrochloride], the IC50 was at most 10 nM.
On the same count and under the same terms, in the case of `Cc1cc(NC(=O)CC(C)(C)C)nn1Cc1cc(Cl)ccc1OCc1ccc(Cl)cc1` [Example 137, N-{1-[(5-Chloro-2-{[(4-chlorophenyl)methyl]oxy}phenyl)methyl]-5-methyl-1H-pyraozl-3-yl}-3,3-dimethylbutanamide] it was at most 10 nM; in that of `Cc1cc(NC(=O)OC(C)C)nn1Cc1cc(Br)ccc1OCc1ccc(F)cc1F` [Example 7, 1-Methylethyl {1-[(5-bromo-2-{[(2,4-difluorophenyl)methyl]oxy}phenyl)methyl]-5-methyl-1H-pyrazol-3-yl}carbamate], at most 10 nM.
In the case of `Cc1cc(C(=O)Nc2ccc(CN3CCCC3)cc2)nn1Cc1cc(Cl)ccc1OCC(C)C` [Example 396, 1-({5-Chloro-2-[(2-methylpropyl)oxy]phenyl}methyl)-5-methyl-N-[4-(1-pyrrolidinylmethyl)phenyl]-1H-pyrazole-3-carboxamide hydrochloride], the IC50 is at most 10 nM.
